Molecules are shown by their SMILES.

The results in this text go back to a melting point compilation (Tetko et al.; mined from patent text by program, amines drawn as free bases though some values may be those of a salt).

As for `O=Cc1c[nH]cc1-c1cccc(Cl)c1Cl`, the melting point (in general, the temperature, or range, at which the solid turns liquid) was in the range of 152 to 154 °C.
Next, `COc1cc2ncnc(N3CCN(C(=O)NCc4cccnc4)CC3)c2cc1OC`: 188 to 189 °C; `COCCOc1ccc(/C=C/COC(=O)NS(=O)(=O)NCCc2ccccc2)c(Oc2ncc(C(F)(F)F)cc2Cl)c1`: 113 to 114 °C.
Next, `CC(=O)N1CC(=O)NC(=Cc2ccc(OCc3ccccc3)cn2)C1=O`: 189 to 191 °C; `O=C(N[C@H]1CC[C@H](CCN2CCN(c3nccc4c3OCC4)CC2)CC1)c1ccc(-n2cccc2)cc1`: 236 °C.
In the case of `Cc1cc(CN2CCN(c3ccc(C(=O)NC4CC4)cc3F)CC2)cc2c1OC(C)C(=O)N2` (stereo not given) it was 253 °C; in that of `CC(=O)OC1CC2CCC3C(CCC4(C)C(O)C(N5CCCCC5)CC34)C2(C)CC1N1CCCCC1` (stereo not given), 183 °C; in that of `COc1ccc(CCc2nccn3c(Br)cc(Br)c23)cc1`, 75 to 76 °C.
As for `Cc1ccc(NC(=O)Nc2ccc(Oc3cc(Cl)ncn3)cc2)cc1C(F)(F)F`, the melting point was in the range of 183 to 184 °C.
Next, `C=C(C(=O)O)c1ccc(OC)c(OC)c1`: 128 °C; `Cc1noc2cc3c(cc12)C1(CO3)C(=O)N(Cc2ccc(-c3cc(N)n[nH]3)cc2)c2ccccc21` (stereo not given): 191 to 195 °C; `O=Cc1cccc([N+](=O)[O-])c1F`: 46 to 47 °C.
Take `O=C1Nc2ccc(Cl)nc2Oc2ccccc21`: the melting point lay within 311 to 313 °C.
In the case of `Cc1c(OCC(F)(F)C(F)(F)F)ccnc1CSc1nc2ccccc2[nH]1` it was 145 to 146 °C.
Next, `CCCC(=O)n1nc2c(c1NC)c(=O)n(CCC)c(=O)n2Cc1ccccc1`: 138 to 139 °C; `CS(=O)(=O)c1ccc(-c2sc(-c3ccc(F)c(Cl)c3)nc2-c2ccc(F)cc2)cc1`: 165 to 167 °C; `CNC(=O)C(=NOC)c1ccccc1COc1ccc(Cl)c(C(=O)OC(C)(C)C)n1`: 103 to 108 °C.
Next, `COc1ccc(N2CCN(c3c(C)c(C)c4c(c3C)CC(C)(CN(C)C)O4)CC2)cc1` (stereo not given): 145 to 148 °C; `Cn1nc(C2CCCC2)cc1N`: 149 to 150 °C; `CCCCCOc1ccc(C(=O)OC(C)C(C)OC(=O)c2ccc(OCCCCC)cc2)cc1` (stereo not given): 52 °C.
In turn, `CN(C)C1CN(c2cc3c(cc2F)c(=O)c(C(=O)O)cn3C2CC2)C1` yielded a melting point of 255 to 261 °C.
With `O=C(O)C(=O)c1ccc(OCCCCCOc2ccccc2)cc1`, the melting point lay in the range of 69 to 70 °C.
With `O=C(NCCCCC1CCSS1)NS(=O)(=O)NC(=O)NCCCCC1CCSS1` (stereo not given), the melting point is 153 to 156 °C.
As for `O=C(O)CCc1cccc(C(O)(C(F)(F)F)C(F)(F)F)c1`, the melting point was 112 to 113 °C.
In the case of `FC(F)(F)c1ccc2nc(-c3ccccc3)oc2n1` it was 127 to 129 °C; in that of `COC(=O)c1cc(OCc2cc(SC)cc(SC)c2)cc(OCc2cc(SC)cc(SC)c2)c1`, 121 to 122 °C.
In the case of `CCOC(=O)C1=Cc2c3c(c(C(=O)OCC)cc2=N1)=Nc1cnccc1-3` it was 198 to 201 °C.
In the case of `NC(=O)C1c2ccccc2-c2ccccc21` it was 250 °C; in that of `O=C(CNc1ccccc1F)Nc1ccc([N+](=O)[O-])cc1`, 150 to 153 °C.
`O=c1[nH]c(=O)n(Cc2ccccc2)cc1C=NO` displayed a melting point of 172 to 174 °C.
With `CN1CCN(c2nc3ccccc3nc2Cc2ccccc2)CC1`, the melting point fell in the range of 89 to 90 °C.
In the case of `CCCCOc1ccc2cc(C(C)C(=O)O)ccc2c1` (stereo not given) it was 125 to 127 °C; in that of `CN(C)C(=O)OCCOc1ccc(CC(NC(=O)OC(C)(C)C)C(O)CNCC(O)C(Cc2ccccc2)NC(=O)O)cc1` (stereo not given), 128 to 132 °C; in that of `CC(=O)Nc1ccc(N2CCN(c3ccncc3)CC2)cc1`, 244 to 247 °C.
Next, `Nc1nc2ccccc2c2c1ncn2CCSc1ccccc1`: 233 to 235 °C; `CC(C)N=CN1c2ccccc2Cc2ccccc21`: 150 °C.
Next, `CCCN(CCC)c1ccc(S(=O)(=O)NCCCCC(=O)O)cc1`: 95 to 98 °C; `C=CC(=O)OCCCCCCCCOc1ccc(C(=O)Oc2ccc(C=O)cc2)cc1`: 73 °C.
Consider `CCOC(=O)c1cnn(-c2cccc(Cl)c2)c1N`, for which the melting point was 115 to 117 °C.
Molecule `O=[N+]([O-])c1cc(C2=NOC(c3cc(C(F)(F)F)cc(C(F)(F)F)c3)(C(F)(F)F)C2)ccc1-n1cnnn1` (stereo not given) yielded a melting point of 173 to 175 °C.
Next, `CCc1nc2c([C@H](O)CO)cccc2cc1C`: 66 °C.
For the molecule `COc1cc(N)c(Cl)cc1C(=O)OCC1CCN(CCCOc2ccc(F)cc2)CC1`, the melting point came to 140 °C.
Next, `O=S(=O)(F)c1ccc(N=Nc2ccc(O)c(Cl)c2)cc1`: 133 to 134 °C; `CCOC(=O)c1cn(-c2nncs2)c2nc(Cl)c(F)cc2c1=O`: 201 to 203 °C; `O=C1c2ccccc2C(=O)N1CCc1cn(C2OCC(O)C(O)C2O)c(=O)[nH]c1=O` (stereo not given): 137 °C.
For the molecule `Cc1ccc(-c2ccc3c(c2)C=C(C(=O)Nc2ccc(C#N)cc2)CCO3)cc1`, the melting point lay within 187 to 189 °C.
In the case of `CCCCNC(=O)NS(=O)(=O)c1cc(I)ccc1C(=O)OC` it was 128 to 130 °C; in that of `c1ccc2c(c1)cc1n2CC2(CCNC2)C1` (stereo not given), 90 to 92 °C.
Next, `COCCOCCOc1cccc2c1C1(COc3cc4c(cc31)OCCO4)C(=O)N2C` (stereo not given): 109 to 110 °C.
In the case of `O=C1c2ccc(NC(=O)C3CCCCC3)cc2C(=O)c2cc(NC(=O)C3CCCCC3)ccc21`, the melting point was determined as 269 °C.
Next, `CCNc1cccc(-c2ccnc3c(C(=O)c4ccccc4)cnn23)c1`: 98 to 99 °C; `Nc1cc(Br)nc(Cl)c1OC(F)F`: 138 to 140 °C.
In the case of `O=C(Nc1n[nH]c2cc(Cl)ccc12)c1ccccn1` it was 177 °C; in that of `C[Si](C)(C)c1ccc(O)cc1`, 76 °C; in that of `COc1ccc(C=CC(=O)Nc2c(CCO)nc3c(C)cc(C)cc3c2-c2ccccc2Cl)cc1OC`, 115 to 116 °C.
As for `CCOC(=O)NN(C)c1cc(C)c(-c2ccc(C#N)cc2)nn1`, the melting point was in the range of 138 to 142 °C.
In the case of `COc1ccc2c(c1)-c1ccccc1C=CC(O)=C2` it was 97 to 99 °C.
In the case of `Cn1cc2c([C@@H]3C[C@H]3CNC(=O)c3ccc(Br)cc3)cccc2n1` it was 140 to 142 °C.
For `CN1C(=O)C2(COc3cc4c(cc32)OCCO4)c2c(-c3ccoc3)cccc21` (stereo not given), the melting point was 178 to 180 °C.
In the case of `CC(=O)NC1=NN(c2ccc(Cl)cc2)C(C)C1` (stereo not given) it was 167 to 169 °C; in that of `CCNC(=O)c1c([Si](C)(C)C)ccc(CF)c1Cl`, 104 to 105 °C; in that of `OCc1csc(NC2CCCCC2)n1`, 118 to 120 °C.
In the case of `COc1nc2ncnc(NCC=C(C)C)c2[nH]1` it was 205 to 210 °C; in that of `CCc1nc2c(N)nc3ccccc3c2n1CCCCSc1ncccn1`, 182 to 185 °C.
In the case of `Cn1c(NO)cc(=O)n(C2CCCCC2)c1=O` it was 153 to 155 °C; in that of `Cc1ccc(S(=O)(=O)N2[C@H](CCCO)CC[C@H]2c2ccc(F)cc2)cc1`, 96 °C.
Molecule `O=C(NCCCCC1CCSS1)N1CCCCC1` (stereo not given) displayed a melting point of 90 to 91 °C.
In the case of `CC1(C)CCCc2cc3c(cc21)C(C)(C)CCC3(C)C` it was 94 to 95 °C; in that of `O=c1[nH]c(=O)n(C2CC(F)C(CO)O2)cc1C(I)=CI` (stereo not given), 112 °C.
In the case of `CN1CCN(c2cccc3c2C[C@H](NC(=O)C2CCCCC2)CC3)CC1` it was 183 to 184 °C.
`N#Cc1cc(C2CCCO2)nn1-c1ccc(NC(=O)c2ccncc2F)cc1` (stereo not given) registered a melting point of 160 to 162 °C.
In the case of `Cc1cc(C)n(Cc2ccccc2Cl)c(=O)c1C#N` it was 243 to 245 °C; in that of `CCOC(=O)c1sc(SC)c2c1CCc1cn[nH]c1-2`, 207 to 208 °C.
Next, `Cc1ccc(S(=O)(=O)Oc2ccc3c4c(nn3CCNCCO)-c3cnccc3C(=O)c24)cc1`: 131 to 133 °C.
Next, `NC(=O)CCCSCc1nccc(NC(N)=NCC(F)(F)F)n1`: 126 to 128 °C; `CC(=O)OC(CCc1cc(C(C)(C)C)c(O)c(C(C)(C)C)c1)CCc1cc(C(C)(C)C)c(O)c(C(C)(C)C)c1`: 82 to 85 °C; `CS(=O)(=O)Nc1cccc(S(=O)(=O)N2CCOc3c(N4CCNCC4)cccc32)c1`: 158 to 164 °C.
`COc1cc(-c2ccc3c(c2)CC[C@H]2N(C)C(=O)CC[C@]32C)ccc1O` yielded a melting point of 247 to 250 °C.
`CC(C)n1c2cc(Cl)ccc2c2oc(C(=O)Cl)cc21`: the melting point was in the range of 141 to 142 °C.
Next, `COC(=O)c1ccc(N2CCC[C@H](N(Cc3cc(C(F)(F)F)cc(C(F)(F)F)c3)c3nnn(C)n3)c3cc(C)c(C(F)(F)F)cc32)cc1`: 101 to 105 °C.
Next, `O=C(O)[C@H](Cc1ccc(C(F)(F)F)cc1)[C@@H](O)c1ccc(F)c(F)c1` (racemic): 76 to 77 °C; `CC(C)(C)C1OC1C(O)c1ccc(C(F)(F)F)cc1` (stereo not given): 74 to 75 °C; `CC1CC2C3CC(Cl)C4=CC(=O)C=CC4(C)C3(Cl)C(O)CC2(C)C1C(=O)COC(=O)C(C)(C)C` (stereo not given): 238 °C.
In the case of `CCCCC(=N)NC(=O)Nc1ccc(Cl)cc1` it was 164 to 169 °C.
For the molecule `CS(=O)(=O)NCCn1nnnc1S`, the melting point fell in the range of 131 to 132 °C.
Next, `O=C(O)C1CCCN2CC(CS)C(=O)N12` (stereo not given): 146 to 147 °C.
In the case of `CCCc1c(OCc2cccc(C(=O)O)c2OCC)ccc(C(C)=O)c1O` it was 154 to 156 °C.
In the case of `Cn1c(COc2ccc(CC3SC(=O)NC3=O)cc2)nc2ccc(OCCc3ccc(NC(=O)Nc4ccc(Cl)cc4)cc3)cc21` (stereo not given), the melting point is 157 to 162 °C.
As to `Oc1ccc(-c2ccccn2)c(O)c1`, the melting point is 170 to 172 °C.
In the case of `O=C(O)C(F)Oc1ccccc1` (stereo not given) it was 61 to 63 °C.
